Assay results: patent US20230012368A1 (Hoffmann-La Roche Inc., priority 2018, published 2023)
Where a name gives a salt, the structure may show the parent alone. Read-outs that look alike come from different tables or passages of the source.

Test system: Acinetobacter baumannii ATCC 17978
Assay: Antimicrobial susceptibility testing: 90% growth inhibitory concentration (IC90) determination
Type: cell-based
Conditions: 90% growth inhibitory concentration, Acinetobacter baumannii ATCC17978, Iso-Sensitest broth, OD 600 nm over 16h, read-out: ATCC17978 IC90
Procedure, shortened: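 Growth of the Acinetobacter baumannii strain was followed by optical density at 600 nm every 20 minutes for 16h at 35±2° C. Inoculum was ~5×10^(5) CFU/ml in Iso-Sensitest medium, with twofold compound dilutions (e.g. 50 to 0.097 μM final). The 90% inhibitory concentration was derived in log-phase growth.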

[1] = Acinetobacter baumannii, ATCC17978, 16 h

Row | SMILES | IC90 [1] [nM] | IC90 [nM]
1 | CNC(=O)c1ccc(Nc2nccn3c(-c4ccc(OC(F)F)cc4)cnc23)cc1CO [Example 225, 4-[[3-[4-(difluoromethoxy)phenyl]im-idazo[1,2-a]pyrazin-8-yl]amino]-2-(hydroxymethyl)-N-methylbenzamide] | 1100 | –
2 | COC(=O)[C@@H](N)CCCCNC(=O)c1ccc(Nc2nccn3c(-c4ccc(OC(F)F)cc4)cnc23)cc1C [Example 226, methyl (2S)-2-amino-6-[[4-[[3-[4-(difluoromethoxy)phenyl]im-idazo[1,2-a]pyrazin-8-yl]amino]-2-methylbenzoyl]amino]hexa-noate;hydrochloride] | 1100 | –
3 | CCN(CC)C(=O)c1ccc(Nc2nccn3c(-c4ccc(OC)cc4)cnc23)cc1 [Example 227, N,N-diethyl-4-[[3-(4-methoxyphenyl)imidazo[1,2-a]pyrazin-8-yl]amino]benzamide] | 610 | –
4 | Cc1cc(Nc2nccn3c(-c4ccc(Cl)c(F)c4F)cnc23)ccc1C(=O)N(C)CCCN [Example 228, N-(3-aminopropyl)-4-[[3-(4-chloro-2,3-difluorophenyl)imidazo[1,2-a]pyrazin-8-yl]amino]-N,2-dimethylbenzamide;hydrochlo-ride] | 1200 | –
5 | CCc1cc(Nc2nccn3c(-c4ccc(Cl)c(F)c4F)cnc23)ccc1C(=O)NCCCN [Example 229, N-(3-aminopropyl)-4-[[3-(4-chloro-2,3-difluorophenyl)imidazo[1,2-a]pyrazin-8-yl]amino]-2-ethylbenzamide;hydrochloride] | 1200 | –
6 | Cc1cc(Nc2nccn3c(-c4ccc(OC(F)F)cc4)cnc23)ccc1C(=O)NCCN1CCOCC1 [Example 230, 4-[[3-[4-(difluoromethoxy)phenyl]im-idazo[1,2-a]pyrazin-8-yl]amino]-2-methyl-N-(2-morpholin-4-ylethyl)benzamide] | 1200 | –
7 | COc1ccc(-c2cnc3c(Nc4ccc(C(=O)N(C)C)cc4)nccn23)cc1 [Example 231, 4-[[3-(4-methoxyphenyl)imidazo[1,2-a]pyrazin-8-yl]amino]-N,N-dimethylbenzamide] | 400 | –
8 | COc1ccc(-c2cnc3c(Nc4ccc(C(=O)NCC5CNCCO5)c(C)c4)nccn23)cc1F (stereo not shown) [Example 232, 4-[[3-(3-fluoro-4-methoxyphenyl)imidazo[1,2-a]pyrazin-8-yl]amino]-2-methyl-N-(morpholin-2-ylmethyl)benzamide; hydrochlo-ride] | 1300 | –
9 | COc1ccc(-c2cnc3c(Nc4ccc(C(=O)NCC5CNCCO5)c(Cl)c4)nccn23)cc1F (stereo not shown) [Example 233, 2-chloro-4-[[3-(3-fluoro-4-methoxyphenyl)imidazo[1,2-a]pyrazin-8-yl]amino]-N-(morpholin-2-ylmethyl)benzamide; hydrochlo-ride] | 1300 | –
10 | Cc1cc(Nc2nccn3c(-c4ccc(OC(F)F)cc4)cnc23)ccc1C(=O)N(C)CCC1CCN(S(C)(=O)=O)CC1 [Example 234, 4-[[3-[4-(difluoromethoxy)phenyl]im-idazo[1,2-a]pyrazin-8-yl]amino]-N,2-dimethyl-N-[2-(1-methylsulfonylpiperidin-4-yl)ethyl]benzamide] | 1300 | –
11 | COc1ccc(-c2cnc3c(Nc4ccc(C(=O)N(C)CCO)cc4)nccn23)cc1 [Example 235, N-(2-hydroxyethyl)-4-[[3-(4-methoxyphenyl)imidazo[1,2-a]pyrazin-8-yl]amino]-N-methylbenzamide] | 1000 | –
12 | Cc1cc(Nc2nccn3c(-c4ccc(Cl)cc4)cnc23)ccc1C(=O)NCCCN [Example 236, N-(3-aminopropyl)-4-[[3-(4-chlorophenyl)imidazo[1,2-a]pyrazin-8-yl]amino]-2-methylbenzamide; hydrochloride] | – | 1400
13 | COc1ccc(-c2cnc3c(Nc4ccc(C(=O)N(C)CCN5CCCCC5)c(Cl)c4)nccn23)cc1F [Example 237, 2-chloro-4-[[3-(3-fluoro-4-methoxyphenyl)imidazo[1,2-a]pyrazin-8-yl]amino]-N-methyl-N-(2-piperidin-1-ylethyl)benzamide] | 1500 | –
14 | C=Cc1cc(Nc2nccn3c(-c4ccc(OC(F)F)cc4)cnc23)ccc1C(=O)NCCN1CCNCC1 [Example 238, 4-[[3-[4-(difluoromethoxy)phenyl]im-idazo[1,2-a]pyrazin-8-yl]amino]-2-ethenyl-N-(2-piperazin-1-ylethyl)benzamide; hydrochlo-ride] | 1800 | –
15 | Cc1cc(Nc2nccn3c(-c4ccc(Cl)cc4)cnc23)ccc1C(=O)NCCCCN [Example 239, N-(4-aminobutyl)-4-[[3-(4-chlorophenyl)imidazo[1,2-a]pyrazin-8-yl]amino]-2-methylbenzamide; hydrochlo-ride] | 540 | –
16 | Cc1cc(Nc2nccn3c(-c4ccc(Cl)c(F)c4F)cnc23)ccc1C(=O)NCC1CCN(C)CC1 [Example 240, 4-[[3-(4-chloro-2,3-difluorophenyl)imidazo[1,2-a]pyrazin-8-yl]amino]-2-methyl-N-[(1-methylpiperidin-4-yl)methyl]benzamide] | 1100 | –

Row | SMILES | IC90 [1] [nM] | IC90 [nM]
17 | Cc1cc(Nc2nccn3c(-c4ccc(Cl)c(F)c4F)cnc23)ccc1C(=O)N(C)CCN [Example 241, N-(2-aminoethyl)-4-[[3-(4-chloro-2,3-difluorophenyl)imidazo[1,2-a]pyrazin-8-yl]amino]-N,2-dimethylbenzamide;hydrochlo-ride] | 1900 | –
18 | Cc1cc(Nc2nccn3c(-c4ccc(OC(F)F)cc4)cnc23)ccc1C(=O)NCC1CNCCO1 (stereo not shown) [Example 242, 4-[[3-[4-(difluoromethoxy)phenyl]im-idazo[1,2-a]pyrazin-8-yl]amino]-2-methyl-N-(morpholin-2-ylmethyl)benzamide; hydrochlo-ride] | 2000 | –
19 | COc1ccc(-c2cnc3c(Nc4ccc(C(=O)NCCO)cc4)nccn23)cc1Cl [Example 243, 4-[[3-(3-chloro-4-methoxyphenyl)imidazo[1,2-a]pyrazin-8-yl]amino]-N-(2-hydroxyethyl)benzamide] | 2100 | –
20 | Cc1cc(Nc2nccn3c(-c4ccc(Cl)c(F)c4F)cnc23)ccc1C(=O)NCCC1CCN(C)CC1 [Example 244, 4-[[3-(4-chloro-2,3-difluorophenyl)imidazo[1,2-a]pyrazin-8-yl]amino]-2-methyl-N-[2-(1-methylpiperidin-4-yl)ethyl]benzamide] | 440 | –
21 | COC(=O)[C@H](CCCCNC(=O)c1ccc(Nc2nccn3c(-c4ccc(OC(F)F)cc4)cnc23)cc1C)NC(=O)OC(C)(C)C [Example 245, methyl (2S)-6-[[4-[[3-[4-(difluoromethoxy)phenyl]im-idazo[1,2-a]pyrazin-8-yl]amino]-2-methylbenzoyl]amino]-2-[(2-methylpropan-2-yl)oxycarbonylamino]hexa-noate] | 2200 | –
22 | COc1ccc(-c2cnc3c(Nc4ccc(C(=O)NCC5CNCCN5)c(C)c4)nccn23)cc1F (stereo not shown) [Example 246, 4-[[3-(3-fluoro-4-methoxyphenyl)imidazo[1,2-a]pyrazin-8-yl]amino]-2-methyl-N-(piperazin-2-ylmethyl)benzamide;hydrochlo-ride] | 2200 | –
23 | Cc1cc(Nc2nccn3c(-c4ccc(OC(F)F)cc4)cnc23)ccc1C(=O)NCCN1CCOCC1=O [Example 247, 4-[[3-[4-(difluoromethoxy)phenyl]im-dazo[1,2-a]pyrazin-8-yl]amino]-2-methyl-N-[2-(3-oxomorpholin-4-yl)ethyl]benzamide] | 2400 | –
24 | COc1ccc(-c2cnc3c(Nc4ccc(C(=O)NCCN5CCNCC5=O)c(C)c4)nccn23)cc1F [Example 248, 4-[[3-(3-fluoro-4-methoxyphenyl)imidazo[1,2-a]pyrazin-8-yl]amino]-2-methyl-N-[2-(2-oxopiperazin-1-yl)ethyl]benzamide;hydrochlo-ride] | 2400 | –
25 | Cc1cc(Nc2nccn3c(-c4ccc(Cl)c(F)c4F)cnc23)ccc1C(=O)NCCN [Example 249, N-(2-aminoethyl)-4-[[3-(4-chloro-2,3-difluorophenyl)imidazo[1,2-a]pyrazin-8-yl]amino]-2-methylbenzamide;hydrochlo-ride] | 2500 | –
26 | Cc1cc(Nc2nccn3c(-c4ccc(OC(F)F)cc4)cnc23)ccc1C(=O)N(C)CCN1CCOCC1 [Example 250, 4-[[3-[4-(difluoromethoxy)phenyl]im-idazo[1,2-a]pyrazin-8-yl]amino]-N,2-dimethyl-N-(2-morpholin-4-ylethyl)benzamide] | 1200 | –
27 | Cc1cc(Nc2nccn3c(-c4ccc(OC(F)F)cc4)cnc23)ccc1C(=O)NC(CO)CN1CCOCC1 (stereo not shown) [Example 251, 4-[[3-[4-(difluoromethoxy)phenyl]im-idazo[1,2-a]pyrazin-8-yl]amino]-N-(1-hydroxy-3-morpholin-4-ylpropan-2-yl)-2-methylbenzamide] | 2700 | –
28 | Cc1cc(Nc2nccn3c(-c4ccc(OC(F)F)cc4)cnc23)ccc1C(=O)NCC(=O)N1CCOCC1 [Example 252, 4-[[3-[4-(difluoromethoxy)phenyl]im-idazo[1,2-a]pyrazin-8-yl]amino]-2-methyl-N-(2-morpholin-4-yl-2-oxoethyl)benzamide] | 2800 | –
29 | Cc1cc(Nc2nccn3c(-c4ccc(Cl)c(F)c4F)cnc23)ccc1C(=O)NCC1CCNCC1 [Example 253, 4-[[3-(4-chloro-2,3-difluorophenyl)imidazo[1,2-a]pyrazin-8-yl]amino]-2-methyl-N-(piperidin-4-ylmethyl)benzamide; hydrochlo-ride] | 2900 | –
30 | Cc1cc(Nc2nccn3c(-c4ccc(OC(F)F)cc4)cnc23)ccc1C(=O)NC[C@H](C)N [Example 254, N-[(2S)-2-aminopropyl]-4-[[3-[4-(difluoromethoxy)phenyl]im-dazo[1,2-a]pyrazin-8-yl]amino]-2-methylbenzamide; hydrochlo-ride] | 3300 | –
31 | Cc1cc(Nc2nccn3c(-c4ccc(OC(F)F)cc4)cnc23)ccc1C(=O)N(C)CCN1CCOC(C)(C)C1 [Example 255, 4-[[3-[4-(difluoromethoxy)phenyl]im-idazo[1,2-a]pyrazin-8-yl]amino]-N-[2-(2,2-dimethylmorpholin-4-yl)ethyl]-N,2-dimethylbenzamide] | 2200 | –
